# In US20130164814A1, “CONTROL OF ENZYMES IN THE PRODUCTION OF PULP” (KEMIRA OYJ, priority 2010, published 2013):
# How the values were obtained:
# [1] = Effect of SPC on the peroxide titration (SPC without catalase and without added H2O2); format: physicochemical; details: 100 mg/L SPC
# Method: (§1) Sodium percarbonate (SPC product E) was tested in a pure distilled water system containing peroxide (210 mg/L), commercial catalase enzyme (1 μL/L) and NaOH to adjust the pH to 9.7 corresponding to the alkaline conditions in a recycled fiber plant. The size of SPC particles comprising NaCO3 coated with Na2SO4 was between 6 and 900 micrometers with maximum 1% >1.6 mm and maximum 2% <0.15 mm. Peroxide decomposition was measured by titration against time. Higher residual peroxide level was obtained with SPC than without any catalase control additive with water-catalase-peroxide system at pH 9.7. Catalase destroyed the 210 mg/I of peroxide very rapidly (FIG. 1, black square). Addition of 100 mg/L of SPC was able to retain the residual peroxide concentration at markedly higher level (triangle). After some initial peroxide degradation, the peroxide level stabilized to ˜80 mg/L. It is known that SPC brings peroxide in the system; this was measured to be 30 mg/L (triangle dotted line). […] Probably catalase enzyme managed to degrade a part of the added peroxide before it was inactivated.
# [2] = test system: commercial catalase enzyme; assay: Peroxide decomposition in pure water-peroxide-catalase system (titration against time); format: biochemical; details: 100 mg/L SPC
# Method: as §1
# natural catalase = assay: Peroxide concentration in 3% recovered paper pulp with catalase-containing process water; format: biochemical, bacteria; details: for Measured H2O2: 3% pulp, dose SPC 6.7 kg/t or H2O2 2.0 kg/t, + 7 kg/t H2O2 at 0 min
# Method: The effect of SPC product A was studied with a system consisting of recycled fiber pulp and process water with natural catalase. Pulp for the experiment was produced at a recycled fiber pilot plant pulper. Old magazines and old newspapers (OMG/ONP 50/50) were shredded and repulped using process water from a European recycled fiber plant. in the pilot pulper at 19% consistency for 20 minutes with alkaline soap chemistry without peroxide (NaOH 10 kg/t (100%), water glass 15 kg/t (product), soap 5 kg/t). The pulp was stored in freezer until used. Process water from the recycled fiber pilot plant was used in the experiments for diluting the pulp into 3%.
# 6.7 kg/t of SPC A was added to the pulp and stirred for 5 minutes. After that, 7 kg/t of 100% peroxide was added (at 0 min in FIG. 2 and Table 3) and the concentration of peroxide in the pulp filtrate was measured against time. The SPC addition brought into the system slightly below 2.0 kg peroxide /ton. Therefore, 2.0 kg of peroxide/t representing a reference sample was added to the pulp and stirred for 5 minutes. Again, after that 7 kg/t of 100% peroxide was added (at 0 min in FIG. 2 and Table 3) and the concentration of peroxide was determined by titration against time from the pulp filtrate.
SMILES,Peroxide brought into the system by SPC [1],"Stabilized peroxide level after initial degradation ([2]; 210 mg/L peroxide, catalase 1 μL/L, pH 9.7)",Peroxide decomposition compared with an equal amount of added peroxide (natural catalase; 3% pulp made of recovered paper),Measured H2O2 (natural catalase; 0 min),Measured H2O2 (natural catalase; 10 min),Measured H2O2 (natural catalase; 30 min),Measured H2O2 (natural catalase; 60 min),Measured benefit: peroxide higher than what only came from SPC ([2]; water-catalase-peroxide system)
"O=C([O-])[O-].O=C([O-])[O-].OO.OO.OO.[Na+].[Na+].[Na+].[Na+] [SPC, sodium percarbonate]",30 mg/L,~80 mg/L,Less peroxide decomposed,8.7 kg/t,7.9 kg/t,7.4 kg/t,7.0 kg/t,
"O=C([O-])[O-].O=C([O-])[O-].OO.OO.OO.[Na+].[Na+].[Na+].[Na+] [SPC product E, sodium percarbonate]",,,,,,,,50 mg/L
"OO [H2O2, hydrogen peroxide, reference compound]",,,,8.7 kg/t,6.4 kg/t,5.8 kg/t,5.2 kg/t,
